Values quoted from earlier work as cited in patent US20080269347A1, “EPINEPHRINE FORMULATIONS” (Azopharma, Inc., priority 2006, published 2008).
Structures can show the parent of a compound that is named as a salt. Where two headings read alike, the source gives them in different places.

CNC[C@H](O)c1ccc(O)c(O)c1 [Epinephrine hydrochloride]
pH at which unstable (in dextrose (5% in water)): above 5.5 | stability when mixed with lidocaine hydrochloride (intravenous admixture, pH raised above 5.5 to about 6): begin to deteriorate within several hours | decomposition (pH 2.5, in 200 days at 30° C.): 5% | decomposition (pH 4.5, in 200 days at 30° C.): 10%
